# Assays:
# gephE = experiment: µSPOT peptide microarray binding assay with recombinant gephE
# native geph = experiment: µSPOT peptide microarray binding assay with native geph from mouse brain lysate
# Protocol: Preparation of Mouse Tissue Lysates
# Whole mouse brains were obtained from C57BL/6J mice at >4 weeks of age and 80 immediately flash frozen in liquid N2. Tissue of mRFP-gephyrin knock-in animals of 1 year of age (provided by Christian Specht, IBENS, Paris) was processed the same way. Before lysis, whole mouse brains were weighted and cut into four pieces along the coronal and sagittal axis. For preparation of one lysate, two diagonally opposite pieces were transferred into a 1.5 mL reaction tube (Sarsted). Lysis was carried out on ice in 400 µL RIPA lysis buffer (150 mM 85 NaCl, 50 mM Tris-HCl (pH=8), 1% Nonident P-40 substitute, 0.5% DOC, 0.1% SDS (all v/v)), to which Ethylenediaminetetraacetic acid (5 mM end concentration) and 1 mini tablet of ROCHE complete protease inhibitor per 10 mL was added immediately before use, by hand crushing the brain material with a hand pestle in a 1.5 mL reaction tube. Lysis was completed by 1 min sonification on ice with a Sartorius Labsonic M Sonificator at 20% amplitude with 90 care to avoid heating the suspensions. Finally, Lysates were centrifuged for 15 min at 17,200×g and 4 °C. The SN was subsequently collected, transferred to a new 1.5 mL reaction tube, flash frozen in liquid N2 and stored at -80 °C until use.
# 95 µSPOT slides were blocked by incubation with 2.5 mL 2% (w/v) IGG free bovine serum
# FL-geph = experiment: µSPOT peptide microarray binding assay with full-length geph
# [1] = µSPOT peptide microarray, GlyRβ full positional scan, recombinant gephE, intensity normalised to wild-type sequence DLRSNDFSIVGSLPR (=1)
# [2] = µSPOT peptide microarray, GlyRβ full positional scan, native geph from mouse brain lysate, intensity normalised to wild-type sequence DLRSNDFSIVGSLPR (=1)
# [3] = µSPOT peptide microarray, GlyRβ full positional scan, intensity normalised to wild-type sequence DLRSNDFSIVGSLPR (=1)
# [4] = µSPOT full positional scan of GlyRβ 15-mer DLRSNDFSIVGSLPR, intensity normalised to wild-type sequence (= 1)
# [5] = µSPOT full positional scan of GlyRβ 15-mer DLRSNDFSIVGSLPR, native geph, intensity normalised to wild-type sequence (= 1)
Sequence,gephE Binding Intensity [norm.] (gephE; [1]),Native geph Binding Intensity [norm.] (native geph; [2]),Fl-geph Binding Intensity [norm.] (FL-geph; [3]),gephE Binding Intensity [norm.] (gephE; [4]),Native geph Binding Intensity [norm.] (native geph; [5]),Fl-geph Binding Intensity [norm.] (FL-geph; [4])
DARSNDFSIVGSLPR [GlyRβ_Full_Positional_Scan_021],1.01,0.95,1.04,–,–,–
PLRSNDFSIVGSLPR [GlyRβ_Full_Positional_Scan_005],1.1,0.72,1.16,–,–,–
DLRSNDFSIVGSLPI [GlyRβ_Full_Positional_Scan_283],–,–,–,0.98,1.01,1.05
"DLRSNDGSIVGSLPR [GlyRβ_Full_Positional_Scan_122, GlyR β 414-428 variant F420G]",0.49,0.37,0.55,–,–,–
DLRSNDFSIVGSLPN [GlyRβ_Full_Positional_Scan_299],–,–,–,0.98,1.37,1.36
"DLRSNDFVIVGSLPR [GlyRβ_Full_Positional_Scan_146, GlyR β 414-428 variant S421V]",0.56,0.23,0.61,–,–,–
DLRSNDFSIVGSLPC [GlyRβ_Full_Positional_Scan_297],–,–,–,0.83,0.97,1.04
DLRSNDFSIVGSLTR [GlyRβ_Full_Positional_Scan_276],–,–,–,0.74,0.49,0.96
"DLRSNDFSIVISLPR [GlyRβ_Full_Positional_Scan_203, GlyR β 414-428 variant G424I]",0.48,0.29,0.52,–,–,–
"DLRSNDFAIVGSLPR [GlyRβ_Full_Positional_Scan_141, GlyR β 414-428 variant S421A]",0.55,0.35,0.79,–,–,–
DLRSNDFSIVGSCPR [GlyRβ_Full_Positional_Scan_257],–,–,–,0.85,0.88,0.87
DPRSNDFSIVGSLPR [GlyRβ_Full_Positional_Scan_025],1.01,1.02,1.01,–,–,–
DWRSNDFSIVGSLPR [GlyRβ_Full_Positional_Scan_028],0.8,0.6,0.82,–,–,–
DLRSIDFSIVGSLPR [GlyRβ_Full_Positional_Scan_083],0.92,0.55,0.81,–,–,–
DLRSNDFSIVGSNPR [GlyRβ_Full_Positional_Scan_259],–,–,–,0.9,0.97,1.03
DLRSNDFSIVGSEPR [GlyRβ_Full_Positional_Scan_251],–,–,–,0.8,0.67,1.11
"DLRSNDFSICGSLPR [GlyRβ_Full_Positional_Scan_197, GlyR β 414-428 variant V423C]",0.45,0.36,0.67,–,–,–
"DLRSNDFSIEGSLPR [GlyRβ_Full_Positional_Scan_191, GlyR β 414-428 variant V423E]",0.58,0.53,0.69,–,–,–
"DLRSNDFSTVGSLPR [GlyRβ_Full_Positional_Scan_176, GlyR β 414-428 variant I422T]",0.53,0.31,0.95,–,–,–
"DLRSNDFQIVGSLPR [GlyRβ_Full_Positional_Scan_160, GlyR β 414-428 variant S421Q]",0.66,0.47,0.9,–,–,–
DLRSNDFSIVGGLPR [GlyRβ_Full_Positional_Scan_222],–,–,–,0.75,0.86,0.99
DLRSPDFSIVGSLPR [GlyRβ_Full_Positional_Scan_085],0.95,0.86,0.85,–,–,–

# — PMC7753147, “High-throughput determination of protein affinities using unmodified peptide libraries in nanomolar scale” (iScience, 2020)
